Laboratory results reported in patent US20210122763A1, “OGA INHIBITOR COMPOUNDS” (Janssen Pharmaceutica NV, priority 2018, published 2021).

How the values were obtained:
[1] = target: T1, OGA (Mus musculus, UniProt Q9EQQ9); experiment: Ex vivo OGA occupancy assay using [3H]-ligand; assay type: in vivo; details: male NMRI or C57Bl6j mice, p.o., 24 h after administration, forebrain area of brain sections, 3 nM [3H]-ligand, normalised to vehicle; for receptor occupancy at 25 mg/kg: mouse, po, read-out: Occupancy (% +/− sd)
T1 construct: Brains were immediately removed from the skull; from tissue; host or cells: mouse brain (forebrain area of sagittal sections)
T1 sequence (Q9EQQ9 1-916): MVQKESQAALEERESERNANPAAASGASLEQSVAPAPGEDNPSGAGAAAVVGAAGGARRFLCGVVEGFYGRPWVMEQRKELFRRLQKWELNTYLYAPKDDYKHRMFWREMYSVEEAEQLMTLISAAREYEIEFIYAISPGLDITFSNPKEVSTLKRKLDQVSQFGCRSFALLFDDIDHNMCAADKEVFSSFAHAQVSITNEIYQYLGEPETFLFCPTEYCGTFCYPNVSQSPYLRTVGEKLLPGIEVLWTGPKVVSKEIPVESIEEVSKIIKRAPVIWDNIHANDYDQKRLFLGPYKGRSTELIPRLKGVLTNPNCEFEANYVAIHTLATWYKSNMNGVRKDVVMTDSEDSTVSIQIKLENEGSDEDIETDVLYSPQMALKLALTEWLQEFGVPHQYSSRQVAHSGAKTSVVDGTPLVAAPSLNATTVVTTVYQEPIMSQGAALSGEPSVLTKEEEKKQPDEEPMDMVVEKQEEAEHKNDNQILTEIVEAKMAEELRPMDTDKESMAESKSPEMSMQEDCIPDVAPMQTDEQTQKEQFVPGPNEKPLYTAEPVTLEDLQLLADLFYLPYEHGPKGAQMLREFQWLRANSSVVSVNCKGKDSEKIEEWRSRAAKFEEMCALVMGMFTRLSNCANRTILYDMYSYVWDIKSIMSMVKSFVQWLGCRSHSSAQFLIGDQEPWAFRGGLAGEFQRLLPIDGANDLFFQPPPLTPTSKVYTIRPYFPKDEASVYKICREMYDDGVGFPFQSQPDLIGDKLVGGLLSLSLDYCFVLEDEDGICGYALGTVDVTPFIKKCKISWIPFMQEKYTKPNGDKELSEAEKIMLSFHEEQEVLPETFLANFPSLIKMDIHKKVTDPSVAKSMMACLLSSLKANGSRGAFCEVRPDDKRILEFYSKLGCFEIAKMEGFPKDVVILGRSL
Experimental: 3) Ex Vivo OGA Occupancy Assay Using [3H]-Ligand Drug Treatment and Tissue Preparation
Male NMRI or C57Bl6j mice were treated by oral (p.o.) administration of vehicle or compound. Animals were sacrificed 24 hours after administration. Brains were immediately removed from the skull, hemispheres were separated and the right hemisphere, for ex vivo OGA occupancy assay, was rapidly frozen in dry-ice cooled 2-methylbutane (−40° C.). […] sagittal sections were cut using a Leica CM 3050 cryostat-microtome (Leica, Belgium), thaw-mounted on microscope slides (SuperFrost Plus Slides, Thermo Fisher Scientific) and stored at −20° C. until use. After thawing, sections were dried under a cold stream of air. The sections were not washed prior to incubation. The 10 minutes incubation with 3 nM [^3H]-ligand was rigorously controlled. All brain sections (from compound-treated and vehicle-treated animals) were incubated in parallel. After incubation, the excess of [^3H]-ligand was washed off in ice-cold buffer (PBS 1× and 1% BSA) 2 times 10 minutes, followed by a quick dip in distilled water. The sections were then dried under a stream of cold air.
QUANTITATIVE AUTORADIOGRAPHY AND DATA ANALYSIS Radioactivity in the forebrain area of brain slices was measured using a P-imager with M3 vision analysis software (Biospace Lab, Paris). Specific binding was calculated as the difference between total binding and non-specific binding measured in Thiamet-G (10 μM) treated sections. Specific binding in sections from drug treated animals was normalised to binding in sections from vehicle treated mice to calculate percentage of OGA occupancy by the drug.

| Compound | receptor occupancy at 25 mg/kg [1] [%] | Occupancy (% +/− sd) ([1]; 25 mg/kg) | melting point [°C] |
| --- | --- | --- | --- |
| Cc1cc(OC2CCN([C@H](C)c3nc4c(cc3F)CCO4)CC2)cc(C)n1 (single isomer, unassigned) [Compound 144] | 94.7 | – | – |
| Cc1cc(OC2CCN([C@@H](C)c3nc4nc(C)sc4cc3F)CC2)cc(C)n1 (single isomer, unassigned) [Compound 83] | 97 | – | – |
| Cc1cc(OC2CCN([C@H](C)c3nc4c(cc3F)OCCO4)CC2)cc(C)n1 (single isomer, unassigned) [Compound 148] | 84.3 | 77.67 +/− 10.5% | – |
| Cc1ncc(OC2CCN(C(C)c3nc4c(cc3F)CCO4)CC2)cn1 (stereo not drawn) [Compound 95] | 20 | – | 127.82 |
